Test results published in PMC5947694, “Structure of the mouse acidic amino acid decarboxylase GADL1” (Acta Crystallographica. Section F, Structural Biology …, 2018).

How the values were obtained:
[1] = target: T1, MmGADL1 (mouse glutamic acid decarboxylase-like protein 1) (Mus musculus, UniProt Q80WP8); experiment: X-ray crystallography, […] Å (crystal form […]); assay type: binding; settings: covalent; Schiff base (internal aldimine) with Lys314; active site at dimer interface, both sites occupied
T1 construct: gene Gadl1; residues 1-502, N-terminal His6 tag and TEV site kept; expressed in E. coli; homodimer; residues 11-502 built, loop about 340-350 disordered
T1 sequence (Q80WP8 49-526 isoform Q80WP8-2): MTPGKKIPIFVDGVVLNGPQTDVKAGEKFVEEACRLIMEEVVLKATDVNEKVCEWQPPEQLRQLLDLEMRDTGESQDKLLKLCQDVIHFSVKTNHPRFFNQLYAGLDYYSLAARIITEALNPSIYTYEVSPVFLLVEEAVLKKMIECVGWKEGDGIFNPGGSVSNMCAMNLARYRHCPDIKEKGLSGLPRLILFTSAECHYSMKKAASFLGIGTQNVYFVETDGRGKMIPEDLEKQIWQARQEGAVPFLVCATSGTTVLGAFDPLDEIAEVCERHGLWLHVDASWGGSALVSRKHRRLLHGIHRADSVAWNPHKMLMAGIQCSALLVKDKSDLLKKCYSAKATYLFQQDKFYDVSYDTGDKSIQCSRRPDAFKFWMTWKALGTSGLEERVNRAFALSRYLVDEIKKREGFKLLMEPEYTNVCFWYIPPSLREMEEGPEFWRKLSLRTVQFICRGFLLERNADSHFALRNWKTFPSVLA

[2] = target: the molecule itself; experiment: SAXS; 1.6-6.5 mg/ml in 20 mM HEPES pH 7.4, 200 mM NaCl, 293 K; molecular mass from forward scattering I(0) against a monomeric BSA standard

## Cc1ncc(COP(=O)(O)O)c(C=O)c1O [PLP]
[1]
  X-ray crystallography, 3.0 Å (crystal form 1): Both active sites in the dimer are occupied by the PLP cofactor, which is covalently bound

B1: mouse glutamic acid decarboxylase-like protein 1 (MmGADL1), His6-tagged, residues 1-502 (enzyme)
chain: MGPHHHHHHLESTSLYKKAGSENLYFQGMTPGKKIPIFVDGVVLNGPQTDVKAGEKFVEEACRLIMEEVVLKATDVNEKVCEWQPPEQLRQLLDLEMRDTGESQDKLLKLCQDVIHFSVKTNHPRFFNQLYAGLDYYSLAARIITEALNPSIYTYEVSPVFLLVEEAVLKKMIECVGWKEGDGIFNPGGSVSNMCAMNLARYRHCPDIKEKGLSGLPRLILFTSAECHYSMKKAASFLGIGTQNVYFVETDGRGKMIPEDLEKQIWQARQEGAVPFLVCATSGTTVLGAFDPLDEIAEVCERHGLWLHVDASWGGSALVSRKHRRLLHGIHRADSVAWNPHKMLMAGIQCSALLVKDKSDLLKKCYSAKATYLFQQDKFYDVSYDTGDKSIQCSRRPDAFKFWMTWKALGTSGLEERVNRAFALSRYLVDEIKKREGFKLLMEPEYTNVCFWYIPPSLREMEEGPEFWRKLSLVAPAIKEKMMKKGSLMLGYQPHRGKVNFFRQVVISPQVSREDMDFLLDEIDSLGRDM
modifications: PLP covalently bound to the N-epsilon atom of Lys314 through a Schiff base linkage (seen in the crystal)
[2]
  stoichiometry N: 2 ratio to theoretical monomer
